In US8012967B2, “Minor groove binders” (University of Strathclyde, priority 2006, dated 2011):
Where two headings read alike, the source gives them in different places.

What was measured:
Type in all cases: cell-based
[1] = test system: Staphylococcus aureus Strain 1 (BSAC04(1)) (Clinical isolate from Glasgow Royal Infirmary); assay: MIC, Staphylococcus aureus Strain 1; conditions: Staphylococcus aureus, read-out: Minimum inhibitory concentrations (MICs), S aureus 1
Procedure: The effects of compounds of the invention in relation to inhibiting the growth of various microorganisms was determined using methods known to those skilled in the art, for example in vitro methods as described in J. Med. Chem. 47, 2133-2156 (2004) and in vivo methods as described in J. Med. Microbiol. 46, 208-213 (1997), the disclosures of which documents are hereby incorporated by reference.
In particular, minimum inhibitory concentrations (MICs) against microorganisms (e.g. S. Aureus, Streptococcus faecalis, Aspergillus niger, Candida albicans or Mycobacterium fortuitum) for compounds of the invention may be measured using procedures such as those described in A. J. Drummond and R. D. Waigh “The development of microbiological methods for phytochemical screening” Recent Res. Devel. Phytochem. 4, 143-152 (2000), the disclosures of which document are hereby incorporated by reference.
Sample dilutions were typically prepared by dissolving the test sample (2 mg) in sterile water (10 mL) to provide a working concentration of 200 μg/ml. The test wells on each 96 well microtitre plate were initially inoculated with culture medium (100 μL) using Mueller-Hinton Broth for antibacterial assays and Sabouraud Broth for antifungal assays. A solution of each test sample (100 μL) was added to one row of each plate and a series of doubling dilutions made for successive rows. Incubation was at 37° C. for antibacterial assay and 25° C. for antifungal assay. […] From the observed pattern of colour, the MIC was determined. All tests included sterility and growth controls.

[2] = test system: Streptococcus faecalis (NCTC 775); assay: MIC, Streptococcus faecalis; conditions: Enterococcus faecalis, NCTC775, read-out: Minimum inhibitory concentrations (MICs), St. faecalis
Procedure: (§1) The effects of compounds of the invention in relation to inhibiting the growth of various microorganisms was determined using methods known to those skilled in the art, for example in vitro methods as described in J. Med. Chem. 47, 2133-2156 (2004) and in vivo methods as described in J. Med. Microbiol. 46, 208-213 (1997), the disclosures of which documents are hereby incorporated by reference. In particular, minimum inhibitory concentrations (MICs) against microorganisms (e.g. S. Aureus, Streptococcus faecalis, Aspergillus niger, Candida albicans or Mycobacterium fortuitum) for compounds of the invention may be measured using procedures such as those described in A. J. Drummond and […] development of microbiological methods for phytochemical screening” Recent Res. Devel. […] The test wells on each 96 well microtitre plate were initially inoculated with culture medium (100 μL) using Mueller-Hinton Broth for antibacterial assays and Sabouraud Broth for antifungal assays. A solution of each test sample (100 μL) was added to one row of each plate and a series of doubling dilutions made for successive rows. Incubation was at 37° C. for antibacterial assay and 25° C. for antifungal assay. […] From the observed pattern of colour, the MIC was determined. All tests included sterility and growth controls.

[3] = test system: Mycobacter fortuitum (NCTC 10394); assay: MIC, Mycobacter fortuitum; conditions: Mycolicibacterium fortuitum, NCTC10394, read-out: Minimum inhibitory concentrations (MICs), M. fortuitum
Procedure: as §1

[4] = test system: Candida albicans (NCPF3179); assay: MIC, Candida albicans; conditions: Candida albicans, NCPF3179, read-out: Minimum inhibitory concentrations (MICs), C. albicans
Procedure: as §1

[5] = test system: Aspergillus niger (IMI 1745); assay: MIC, Aspergillus niger; conditions: Aspergillus niger, read-out: Minimum inhibitory concentrations (MICs), A. niger
Procedure: as §1

[6] = test system: Staphylococcus aureus Strain 2 (NCTC 6571); assay: MIC, Staphylococcus aureus Strain 2; conditions: Staphylococcus aureus, NCTC6571, read-out: Minimum inhibitory concentrations (MICs), S. aureus 2
Procedure: as §1

[7] = value in parentheses, na = not active

| SMILES | MIC [1, 7] | MIC ([1]; value outside parentheses) | MIC [2, 7] | MIC ([2]; value outside parentheses) | MIC [3, 7] | MIC ([3]; value outside parentheses) | MIC [4, 7] | MIC ([4]; value outside parentheses) | MIC [5, 7] | MIC ([5]; value outside parentheses) | MIC [6, 7] | MIC ([6]; value outside parentheses) |
| --- | --- | --- | --- | --- | --- | --- | --- | --- | --- | --- | --- | --- |
| Cn1cc(NC(=O)c2cc(NC(=O)c3cc(/C=C/c4cnc5ccccc5c4)cn3C)cn2C)cc1C(=O)NCCN1CCOCC1 [Example 10, 1-Methyl-N-[1-methyl-5-({[1-methyl-5-({[2-(4-morpholinyl)ethyl]amino}-carbonyl)-1H-pyrrol-3-yl]amino}carbonyl)-1H-pyrrol-3-yl]-4-[(E)-2-(3-quinolinyl)ethenyl]-1H-pyrrole-2-carboxamide] | 4 µg/mL | 5.3 µM | 12.5 µg/mL | 15 µM | 100 µg/mL | 116 µM | 100 µg/mL | 116 µM |  |  |  |  |
| CC(C)CCc1sc(NC(=O)c2cc(NC(=O)c3ccc(/C=C/c4cnc5ccccc5c4)cc3)cn2C)nc1C(=O)NCCN1CCOCC1 [Example 16, 5-Isopentyl-2-({[1-methyl-4-({4-[(E)-2-(3-quinolinyl)ethenyl]benzoyl}amino)-1H-pyrrol-2-yl]carbonyl}amino)-N-[2-(4-morpholinyl)ethyl]-1,3-thiazole-4-carboxamide] |  |  |  |  | 100 µg/mL | 122 µM | 50 µg/mL | 61 µM | 100 µg/mL | 122 µM |  |  |
| CC(C)CCc1sc(NC(=O)c2cc(NC(=O)c3ccc(/C=C/c4cc5ccccc5nc4Cl)cc3)cn2C)nc1C(=O)NCCN1CCOCC1 [Example 17, 2-({[4-({4-[(E)-2-(2-Chloro-3-quinolinyl)ethenyl]benzoyl}amino)-1-methyl-1H-pyrrol-2-yl]carbonyl}amino)-5-isopentyl-N-[2-(4-morpholinyl)ethyl]-1,3-thiazole-4-carboxamide] |  |  |  |  | 100 µg/mL | 117 µM | 100 µg/mL | 117 µM |  |  |  |  |

Next, values leading:

| MIC [1, 7] | MIC ([1]; value outside parentheses) | MIC [2, 7] | MIC ([2]; value outside parentheses) | MIC [3, 7] | MIC ([3]; value outside parentheses) | MIC [4, 7] | MIC ([4]; value outside parentheses) | MIC [5, 7] | MIC ([5]; value outside parentheses) | MIC [6, 7] | MIC ([6]; value outside parentheses) | SMILES |
| --- | --- | --- | --- | --- | --- | --- | --- | --- | --- | --- | --- | --- |
|  |  |  |  | 100 µg/mL | 169 µM | 100 µg/mL | 169 µM |  |  |  |  | CC(C)CCc1sc(NC(=O)c2cc(NC(=O)c3ccc(/C=C/c4cc5ccccc5nc4On4nnc5ccccc54)cc3)cn2C)nc1C(=O)NCCN1CCOCC1 [Example 18, 2-[({4-[(4-{(E)-2-[2-(1H-1,2,3-Benzotriazol-1-yloxy)-3-quinolinyl]ethenyl}-benzoyl)amino]-1-methyl-1H-pyrrol-2-yl}carbonyl)amino]-5-isopentyl-N-[2-(4-morpholinyl)ethyl]-1,3-thiazole-4-carboxamide] |
| 4 µg/mL | 5.2 µM | 25 µg/mL | 32 µM | 100 µg/mL | 129 µM | 100 µg/mL | 129 µM | 50 µg/mL | 64 µM |  |  | COc1ccc(/C=C/c2ccc3cc(C(=O)Nc4cc(C(=O)Nc5cc(C(=O)NCCN6CCOCC6)n(C)c5)n(C)c4)ccc3n2)cc1 [Example 23, 2-[(E)-2-(4-Methoxyphenyl)ethenyl]-N-[1-methyl-5-({[1-methyl-5-({[2-(4-morpholinyl)ethyl]amino}carbonyl)-1H-pyrrol-3-yl]amino}carbonyl)-1H-pyrrol-3-yl]-6-quinolinecarboxamide] |
| 4 µg/mL | 5.1 µM | 100 µg/mL | 26 µM |  |  | 100 µg/mL | 126 µM | 100 µg/mL | 126 µM | 100 µg/mL | 126 µM | CSc1ccc(/C=C/c2ccc3cc(C(=O)Nc4cc(C(=O)Nc5cc(C(=O)NCCN6CCOCC6)n(C)c5)n(C)c4)ccc3n2)cc1 [Example 24, N-[1-Methyl-5-({[1-methyl-5-({[2-(4-morpholinyl)ethyl]amino}carbonyl)-1H-pyrrol-3-yl]amino}carbonyl)-1H-pyrrol-3-yl]-2-{(E)-2-[4-(methylsulfanyl)-phenyl]ethenyl}-6-quinolinecarboxamide] |
| 0.5 µg/mL | 0.67 µM | 25 µg/mL | 34 µM | 100 µg/mL | 135 µM | 50 µg/mL | 67 µM | 100 µg/mL | 135 µM | 50 µg/mL | 67 µM | CSc1ccc(/C=C/c2ccc(C(=O)Nc3cc(C(=O)Nc4cc(C(=O)NCCN5CCOCC5)n(C)c4)n(C)c3)cn2)cc1 [Example 25, N-[1-methyl-5-({[1-methyl-5-({[2-(4-morpholinyl)ethyl]amino}carbonyl)-1H-pyrrol-3-yl]amino}carbonyl)-1H-pyrrol-3-yl]-6-{(E)-2-[4-(methylsulfanyl)-phenyl]ethenyl}nicotinamide] |
